The values that follow come from paper PMC7036753, “Lipidated Analogs of the LL-37-Derived Peptide Fragment KR12—Structural Analysis, Surface-Active Properties and Antimicrobial Activity” (International Journal of Molecular Sciences, 2020).

Assay [1] relates to S. aureus ATCC 25923 biofilm. The assay is classed as cell-based, Staphylococcus aureus. The following applies: S. aureus ATCC 25923 biofilm, 24 h.
For assay [2], the system named is S. aureus ATCC 6538 biofilm. The assay is classed as cell-based, Staphylococcus aureus. The settings on record: S. aureus ATCC 6538 biofilm, 24 h.
The subject of assay [3] is S. aureus ATCC 12598 biofilm. The format is cell-based, Staphylococcus aureus. The settings on record: S. aureus ATCC 12598 biofilm, 24 h.
Assay [4] concerns reference strains of S. aureus. The format is cell-based, Staphylococcus aureus. The following applies: five reference strains of S. aureus.
Assay [5] relates to A. baumannii ATCC BAA-1605. The assay is classed as cell-based, Acinetobacter baumannii. The settings on record: A. baumannii ATCC BAA-1605; Mueller-Hinton Broth, 18 h. Summed up: (§1)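 Following CLSI guidance, compounds (0.5–256 µg/mL) are incubated with bacteria (0.5 × 10^5 CFU/mL, Mueller–Hinton broth) for 18 h at 37 °C. Each MIC reflects complete visible growth inhibition, measured in triplicate with growth and sterility controls.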

The subject of assay [6] is E. faecium ATCC 700221. The assay is classed as cell-based, Enterococcus faecium. The following applies: E. faecium ATCC 700221; Mueller-Hinton Broth, 18 h. The method in brief:
as §1

Assay [7] deals with K. aerogenes ATCC 13048. The format is cell-based, Klebsiella aerogenes. The settings on record: K. aerogenes ATCC 13048; Mueller-Hinton Broth, 18 h. Summed up: as §1
For assay [8], the system named is S. aureus ATCC 6538. The format is cell-based, Staphylococcus aureus. The settings on record: S. aureus ATCC 6538; Mueller-Hinton Broth, 18 h. The method in brief:
as §1

Assay [9] has as its system S. aureus ATCC 25923. The assay is classed as cell-based, Staphylococcus aureus. The following applies: S. aureus ATCC 25923; Mueller-Hinton Broth, 18 h. Summed up: as §1
Assay [10] deals with S. aureus ATCC 33591 (MRSA). The assay is classed as cell-based, Staphylococcus aureus. The settings on record: S. aureus ATCC 33591 (MRSA); Mueller-Hinton Broth, 18 h. Summed up: as §1
The subject of assay [11] is S. aureus ATCC 12598. The format is cell-based, Staphylococcus aureus. The following applies: S. aureus ATCC 12598; Mueller-Hinton Broth, 18 h. The method in brief:
as §1

The test system of assay [12] is S. aureus ATCC 9144. The assay is classed as cell-based, Staphylococcus aureus. The following applies: S. aureus ATCC 9144; Mueller-Hinton Broth, 18 h. The method in brief: as §1
In assay [13] the test system is K. pneumoniae ATCC 700603. The assay is classed as cell-based, Klebsiella pneumoniae. The settings on record: K. pneumoniae ATCC 700603; Mueller-Hinton Broth, 18 h. Summed up:
as §1

≈ marks a conversion by molar mass, not a printed value. Peptide text beside a SMILES is read from it. * marks the point of attachment. Bz = O=C(c1ccccc1)*

Regarding `CC[C@H](C)[C@H](NC(=O)[C@H](CCCNC(=N)N)NC(=O)[C@H](CCC(N)=O)NC(=O)[C@@H](NC(=O)[C@@H](NC(=O)[C@H](CCCNC(=N)N)NC(=O)[C@H](CCCCN)NC(=O)c1ccccc1)[C@@H](C)CC)C(C)C)C(=O)N[C@@H](CCCCN)C(=O)N[C@@H](CC(=O)O)C(=O)N[C@@H](Cc1ccccc1)C(=O)N[C@@H](CC(C)C)C(=O)N[C@@H](CCCNC(=N)N)C(N)=O` [VIII, Benzoic acid-KR12-NH2] (Bz-KRIVQRIKDFLR-NH2), the figures for the MBEC in [1], in assay [2] and in assay [3] were 64 µg/mL, 32 µg/mL and 16 µg/mL, respectively. The “GM (geometric mean of the MIC values against S. aureus)” value in [4] turned out to be 18.38 µg/mL. Moreover, the MIC is reported as 16 µg/mL (≈ 9.55 µM) in [5]; 1 µg/mL (≈ 0.597 µM) in assay [6]; 16 µg/mL (≈ 9.55 µM) in assay [7]; 8 µg/mL (≈ 4.78 µM) in assay [8]; 32 µg/mL (≈ 19.1 µM) in assay [9]; 32 µg/mL (≈ 19.1 µM) in assay [10]. Besides, the MIC in [11], in assay [12] and in assay [13] was 16 µg/mL (≈ 9.55 µM) in each case.

Broadly, the MIC is the lowest concentration that inhibits growth of the organism. A lower MIC goes with inhibition by little substance.
